For orientation: pIC50 means the IC50 on a negative log10 scale, so that one unit is a factor of ten.

pIC50: −log10 of the molar value. Where two headings read alike, the source gives them in different places. Where a SMILES comes first, the peptide text is derived from it. Where no end group is shown, it is not given here.

For assay [1], the system named is MT1-GFP expressing LNCaP cells. The experiment in a line: Cell surface E-cadherin shedding. The class given is cell-based, human. Here is the method:
To examine if shedding of E-cadherin at cell-cell adherens junctions correlated with loss of cell surface E-cadherin, biotinylation of cell surface proteins followed by streptavdin precipitation and Western blotting using anti-E-cadherin antibody was performed (51).

For assay [2], the system named is MT1-GFP expressing cells. The experiment in a line: Combined FITC-labeled fibronectin substrate degradation and phagokinetic assay. Type of assay: cell-based. The text has this: Using FITC-labeled gelatin coated coverslips and engineered MT1-MMP substitution mutations, structure-function relationships of MT1-MMP in cell invasion and migration were studied by domain shuffling experiments (FIG. 32A). As expected, MT1-MMP expressing cells degraded FITC-labeled gelatin and migrated over digested substrate (FIG. 32B). […] To examine the effect of proteolytic activity of MT1-MMP on cell migration, we employed a natural MMP inhibitor, TIMP-2 in combined FITC-labeled substrate degradation assay and phagokinetic assay (54) by coating coverslips with both FIT-labeled fibronectin and colloidal gold particles.

The subject of assay [3] is MT1-GFP expressing LNCaP cells. The assay is described as follows: FITC-labeled Matrigel degradation in the presence of proMMP-2. The class given is cell-based, human. The text has this:
To examine the role of MT1-MMP in invasion through basement membrane in an in vitro assay, we labeled Matrigel, a soluble basement membrane matrix from the EHS tumor with FITC. Western blotting using anti-type IV collagen and anti-laminin V antibodies confirmed that type IV collagen and laminin V remained intact in FITC-labeled Matrigel. Using FITC-labeled Matrigel-coated coverslips, LNCaP cells producing MT1-GFP were examined for Matrigel degradation. MT1-MMP expressing LNCaP cells readily degraded the FITC-labeled substrate (depicted by loss of fluorescence-labeled Matrigel in FIG. 31A-a).

The subject of assay [4] is MT1-GFP expressing LNCaP cells. The assay is described as follows: Cell scattering in 3D type I collagen gel. The class given is cell-based, human. Conditions: TIMP-2 10 nM. The text has this: Although increasing evidence highlight the importance of proteolytic remodeling of the ECM during invasion (65,66), recent reports have challenged this concept showing that the ability of tumor cells to migrate through collagenous barriers by switching to an amoeboid-like form was independent on proteinases (67). This observation, however, was possible due to reversible MMP inhibitors and low concentration of inhibitors (68). […] Employing a 3-dimensional (3D) culture in native type I collagen gel, we examined the cell scattering effect of MT1-GFP. […] GFP-alone expressing LNCaP cells formed spherical aggregates (FIG. 37A-a2-a3), while MT-GFP expressing LNCaP cells presented a scattered distribution in the gels (FIG. 37-b2-b3). H & E staining of frozen sections confirmed this observation (FIG. 37A-a4,b4).

Assay [5] has as its system cell migration induced by MT6-MMP. The assay is described as follows: Cell migration induced by MT6-MMP (specificity). Type of assay: cell-based. The source says: (§1) Based on our studies of the structure-function relationship of the MT1-MMP hemopexin (PEX)-like domain, we designed and synthesized peptides mimicking 8 amino acids of the outermost β strand of blades I, II, III and IV from the PEX domain, named IS4-8 ([…]) (SEQ ID NO:01), IIS4-8 ([…]) (SEQ ID NO:02), and IVS4-8 ([…]) (SEQ ID NO:03), respectively. Corresponding scrambled peptides were synthesized as controls. […] We further designed truncated forms of IS4-8 and IVS-8 peptides from the N- and C-terminus of the peptides. The C-terminal 5 amino acids of the IS4-8, named IS4-5 (GYPMP) (SEQ ID NO:04) is essential for inhibition of functional MT1-MMP. […] Thus, the PEX domain of MT1-MMP is a high-specificity target for interference with MT1-MMP-induced cancer cell invasion and for identification of cancer cells expressing MT1-MMP. These novel bi-functional inhibitory peptides will provide specificity with limited systemic toxicity.
(§2) The term “specifically reduces cell migration that is mediated by MT1-MMP” when in reference to a composition means that the composition reduces cell migration that is mediated by MT1-MMP, in the absence of a reduction of cell migration that is mediated by MMP-9 and/or MT3-MMP and/or MT6-MMP (FIG. 7).

Assay [6] deals with human MDA-MB-231, and -435 breast cancer cells (-435). The assay is described as follows: Cell migration of MDA-MB-435 cells expressing endogenous MT1-MMP. The class given is cell-based.
Text: as §1

Assay [7] has as its system COS-1 cells transfected with MT1-MMP cDNA. The assay is described as follows: Cell migration of MT1-MMP transfected COS-1 cells. The class given is cell-based.
Text: as §1

In assay [8] the test system is human MDA-MB-231 breast cancer cell.
In assay [9] the test system is cell migration induced by MMP-9. The assay is described as follows: Cell migration induced by MMP-9 (specificity). Type of assay: cell-based.
Text: as §1, §2

In assay [10] the test system is human MDA-MB-231 breast cancer cells. The assay is described as follows: Cell migration of MDA-MB-231 cells expressing endogenous MT1-MMP. Type of assay: cell-based.
Text: as §1

Assay [11] relates to human HT1080 fibrosarcoma cells. The experiment in a line: Cell migration of HT1080 cells expressing endogenous MT1-MMP. The class given is cell-based.
Text: as §1

For assay [12], the system named is cells expressing MT1-MMP. The experiment in a line: Flow cytometry binding to cells. Conditions: flow cytometry analysis.
Text: as §1
(In general: A flow cytometer gives signals particle by particle.)

Assay [13] relates to human breast cancer MCF-7 cells ectopically expressing MT1-MMP. The assay is described as follows: proMMP-2 activation by gelatin zymography of conditioned medium. Type of assay: cell-based. Conditions: MCF-7 cells expressing MT1-MMP. The text has this:
The conditioned medium from human breast cancer MCF-7 cells ectopically expressing MT1-MMP in the presence of scrambled peptides or specific peptides was examined by gelatin zymography to determine whether interference with the PEX domain of MT1-MMP by the peptides also affects the proteolytic activity of MT1-MMP.

Assay [14] deals with GFP expressing MDA-MB-435 cells. The experiment in a line: Mammary fat pad tumor growth and lung metastasis model. The class given is in vivo, immunodeficient female mice. Conditions: 20 mg/kg/day i.p. and intratumoral alternatively; after twelve weeks. On the procedure:
2×10^6 GFP expressing MDA-MB-435 cells were injected in the mammary fat pad of immunodeficient female mice followed by administering 20 mg/kg/day of specific and scrambled peptides via i.p. and intratumoral injection, alternatively. Primary tumor size was monitored over a 10-week time course. Inhibitory peptides had no effect on tumor growth (A). After twelve weeks, the mice were sacrificed and the organs were pathologically examined. The lungs were sliced into 3 mm thick sections. The incidence of lung metastasis was assessed by examining metastatic tumors in the lungs (B). The number (C) and size (D) of metastasized tumors in the lungs were microscopically counted based on GFP expression and measured using Nikon NIS Elements Imaging software, respectively.

Assay [15] relates to MT1-MMP-mediated cell migration (LNCaP). The assay is described as follows: FITC-fibronectin degradation assay and Transwell chamber migration assay with GST-MTPEX. Type of assay: cell-based. The source says:
Our results and others emphasized the critical role of the PEX domain of MT1-MMP in cells migration (8,57). […] As proof of this hypothesis, we generated chimeric cDNAs encoding GST and GST-MTPEX chimera.

Regarding “tissue inhibitor of matrix metalloproteinase-2 [TIMP-2]”, the “cell surface E-cadherin shedding” value in [1] is on record as “interfered with cell surface E-cadherin shedding”. In assay [2], the “substrate degradation (FITC-labeled fibronectin)” value is given as “interfered with substrate degradation”. The “digestion of FITC-labeled Matrigel” value in [3] was “totally abolished the digestion of Matrigel”. Also, the “scattered distribution of cells in type I collagen gel” value in [4] was “abolished”.
Consider `CC(C)C[C@H](NC(=O)[C@H](C)NC(=O)[C@H](CO)NC(=O)[C@H](CCCCN)NC(=O)[C@@H]1CCCN1C(=O)[C@H](Cc1ccc(O)cc1)NC(=O)CN)C(=O)N[C@@H](CCCNC(=N)N)C(=O)O` [IVS4-8] (H-GYPKSALR-OH; N-terminus and C-terminus assumed), for which the “cell migration induced by MT6-MMP” value in assay [5] is “do not affect cell migration”. The cell migration result in [6], in assay [7], in assay [10] and in assay [11] was “reduce cell migration” each time. The pIC50 in assay [8] is 5.00. Besides, the “cell migration induced by MMP-9” value in assay [9] is recorded as “do not affect cell migration”.
Take “biotinylated IS4-5: biotinylated IS4-5 (GYPMP) peptide used for flow cytometry (also: biotinylated, position not given here)”: the “binding to cells expressing MT1-MMP” value in assay [12] was “specifically binds to cells expressing MT1-MMP”.
Take “TIMP-1: recombinant TIMP-1, tissue inhibitor of metalloproteinases used as control inhibitor”: in assay [3], the “cell migration over Matrigel” value is recorded as “did not interfere with cell migration” and the “digestion of FITC-labeled Matrigel” value is on record as “partial inhibition of substrate digestion”.
As to `CSCC[C@H](NC(=O)[C@@H]1CCCN1C(=O)[C@H](Cc1ccc(O)cc1)NC(=O)CN)C(=O)N1CCC[C@H]1C(=O)O` [IS4-5, GYPMP] (H-GYPMP-OH; N-terminus and C-terminus assumed), the pIC50 in assay [8] was 5.82. Further, the “MT1-MMP-induced proMMP-2 activation” value in [13] was “specifically inhibited”.
With “IS4: MT1-MMP specific inhibitory IS4 peptide given to mice in Example 27; length (IS4-8 or IS4-5) not stated (VMDGYPMP)”, in assay [14], the “lung metastasis (degree/number of metastasized tumors)” value is “reduced” and the “tumor foci area (size) in the lung” value was “tumor sizes in scramble peptide treated mice were noticeably larger”.
For `CSCC[C@H](NC(=O)[C@@H](N)C(C)C)C(=O)N[C@@H](CC(=O)O)C(=O)NCC(=O)N[C@@H](Cc1ccc(O)cc1)C(=O)N1CCC[C@H]1C(=O)N[C@@H](CCSC)C(=O)N1CCC[C@H]1C(=O)O` [IS4-8] (H-VMDGYPMP-OH; N-terminus and C-terminus assumed), in [5], the “cell migration induced by MT6-MMP” value is “do not affect cell migration”. Moreover, the cell migration entry in assay [6], in assay [7], in [10] and in [11] was “reduce cell migration” each time. The pIC50 in [8] was 5.82. The “MT1-MMP-induced proMMP-2 activation” value in [13] is “specifically inhibited”. The “cell migration induced by MMP-9” value in assay [9] is “do not affect cell migration”.
“IVS4: MT1-MMP specific inhibitory IVS4 peptide given to mice in Example 27; probably IVS4-8 (GYPKSALR)”: in assay [14], the “lung metastasis (degree/number of metastasized tumors)” value was “reduced” and the “tumor foci area (size) in the lung” value is “tumor sizes in scramble peptide treated mice were noticeably larger”.
On to “GST-tagged MTPEX protein: purified GST fusion protein of the PEX domain of MT1-MMP”, for which the MT1-MMP-mediated cell migration result in [15] is “inhibited MT1-MMP-mediated cell migration”; in assay [15] (listed as MT1-MMPPEX), “inhibited MT1-MMP-medicated LNCaP cell migration”; in [15] (listed as recombinant MT1-PEX protein), “blocked MT1-MMP-mediated cell migration”.

These data come from US9133239B2, “Compositions and methods for inhibiting matrix metalloproteinase (MMP)-mediated cell migration” (THE RESEARCH FOUNDATION FOR THE STATE UNIVERSITY OF NEW YORK, priority 2010, dated 2015).
